Reference: US20100311714A1, “1H-IMIDAZO[4,5-c]QUINOLINONE COMPOUNDS” (priority 2009, published 2010)

Target: T1, PI3K gamma (Homo sapiens, UniProt P48736)
T1 construct: His tag (C); made in house; host or cells: construct from Roger Williams lab (pVL1393); baculovirus BV950; Tn5 (Trichoplusia ni) or TiniPro insect cells
Assay: PI3K gamma kinase assay (Kinase-Glo luminescence)
Assay type: biochemical
Details: read-out: PI3Kgamma/IC50

T1 sequence (P48736 144-1102 limits assumed): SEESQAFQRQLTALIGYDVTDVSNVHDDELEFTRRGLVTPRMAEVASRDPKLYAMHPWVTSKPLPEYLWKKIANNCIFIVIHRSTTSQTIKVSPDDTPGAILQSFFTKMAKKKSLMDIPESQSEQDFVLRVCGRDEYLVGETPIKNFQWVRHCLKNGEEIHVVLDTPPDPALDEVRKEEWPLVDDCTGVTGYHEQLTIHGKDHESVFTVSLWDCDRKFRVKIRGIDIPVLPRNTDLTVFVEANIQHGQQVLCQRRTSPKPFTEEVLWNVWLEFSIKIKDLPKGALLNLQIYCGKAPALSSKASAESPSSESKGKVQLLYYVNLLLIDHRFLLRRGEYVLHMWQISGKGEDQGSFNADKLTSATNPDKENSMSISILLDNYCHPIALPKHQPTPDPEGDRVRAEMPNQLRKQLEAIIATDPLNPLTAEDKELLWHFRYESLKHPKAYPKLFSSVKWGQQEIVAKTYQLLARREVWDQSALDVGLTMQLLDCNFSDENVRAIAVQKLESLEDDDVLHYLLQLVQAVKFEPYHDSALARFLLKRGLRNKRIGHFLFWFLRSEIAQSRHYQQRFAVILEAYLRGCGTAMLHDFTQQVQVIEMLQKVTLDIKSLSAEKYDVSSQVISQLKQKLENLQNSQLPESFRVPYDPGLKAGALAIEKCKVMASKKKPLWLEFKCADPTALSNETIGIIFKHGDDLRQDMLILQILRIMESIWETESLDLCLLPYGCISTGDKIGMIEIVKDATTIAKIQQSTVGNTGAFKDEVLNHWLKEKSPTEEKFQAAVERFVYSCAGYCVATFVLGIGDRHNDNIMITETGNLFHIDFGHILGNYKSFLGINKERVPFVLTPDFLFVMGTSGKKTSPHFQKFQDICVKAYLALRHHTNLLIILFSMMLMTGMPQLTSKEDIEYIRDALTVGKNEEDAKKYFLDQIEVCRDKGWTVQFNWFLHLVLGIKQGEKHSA

| Compound | IC50 [nM] |
| --- | --- |
| Cc1ncccc1-n1c(=O)n(C)c2cnc3ccc(-c4cnc5[nH]ccc5c4)cc3c21 [Example 2.8, 3-Methyl-1-(2-methyl-pyridin-3-yl)-8-(1H-pyrrolo[2,3-b]pyridin-5-yl)-1,3-dihydro-imidazo[4,5-c]quinolin-2-one] | 361 |
| Cn1c(=O)n(-c2cccnc2F)c2c3cc(-c4cnc5[nH]ccc5c4)ccc3ncc21 [Example 6.3, 1-(2-Fluoro-pyridin-3-yl)-3-methyl-8-(1H-pyrrolo[2,3-b]pyridin-5-yl)-1,3-dihydro-imidazo[4,5-c]quinolin-2-one] | 464 |
| CNC(=O)c1ccc(-c2ccc3ncc4c(c3c2)n(-c2cccnc2C)c(=O)n4C)cc1 [Example 2.4, N-Methyl-4-[3-methyl-1-(2-methyl-pyridin-3-yl)-2-oxo-2,3-dihydro-1H-imidazo[4,5-c]quinolin-8-yl]-benzamide] | 455 |
